Experimental data as given in the CheMixHub viscosity set.
± gives the uncertainty stated by the source.

Assay: xn = mol fraction of the nth substance listed

C=CC(=O)OC + CCCCCCCCCCO
viscosity [mPa·s], 101.3 kPa
Conditions	x1 = 0.1056	x1 = 0.2709	x1 = 0.3442	x1 = 0.4717	x1 = 0.5843	x1 = 0.7574	x1 = 0.8309	x1 = 0.8923	x1 = 0.9483	x1 = 0.9749
298.15 K	7.732 ± 0.3	4.826 ± 0.21	3.593 ± 0.16	2.331 ± 0.11	1.712 ± 0.08	0.938 ± 0.047	0.738 ± 0.038	0.639 ± 0.034	0.519 ± 0.029	0.482 ± 0.027
308.15 K	5.659 ± 0.24	3.531 ± 0.16	2.828 ± 0.13	1.792 ± 0.084	1.425 ± 0.068	0.804 ± 0.041	0.641 ± 0.034	0.54 ± 0.03	0.459 ± 0.026	0.432 ± 0.025

ClCC(Cl)Cl + O=S1(=O)CCCC1
viscosity [mPa·s], 100 kPa
Conditions	x2 = 0.0188	x2 = 0.1215	x2 = 0.2323	x2 = 0.3466	x2 = 0.4454	x2 = 0.5548	x2 = 0.6864	x2 = 0.8249	x2 = 0.9723
303.15 K	1.202 ± 0.031	2.163 ± 0.053	3.186 ± 0.076	4.237 ± 0.099	5.137 ± 0.12	6.131 ± 0.13	7.307 ± 0.15	8.528 ± 0.17	9.798 ± 0.19
308.15 K	1.108 ± 0.029	1.937 ± 0.048	2.834 ± 0.068	3.752 ± 0.088	4.539 ± 0.11	5.402 ± 0.12	6.428 ± 0.14	7.489 ± 0.15	8.588 ± 0.17
313.15 K	1.024 ± 0.027	1.754 ± 0.044	2.548 ± 0.062	3.369 ± 0.08	4.069 ± 0.095	4.831 ± 0.11	5.738 ± 0.13	6.671 ± 0.14	7.649 ± 0.15

CC1CCCO1 (stereo not drawn) + O=C1CCCC1
298.15 K, 101 kPa
Conditions	viscosity [mPa·s]
x1 = 0.0212	1.103 ± 0.0079
x1 = 0.0637	1.061 ± 0.0077
x1 = 0.1277	1.001 ± 0.0075
x1 = 0.1917	0.944 ± 0.0073
x1 = 0.2563	0.89 ± 0.0071
x1 = 0.3212	0.84 ± 0.0069
x1 = 0.3856	0.792 ± 0.0067
x1 = 0.4507	0.747 ± 0.0065
x1 = 0.5157	0.705 ± 0.0064
x1 = 0.5812	0.665 ± 0.0062
x1 = 0.6466	0.628 ± 0.0061
x1 = 0.7069	0.596 ± 0.006
x1 = 0.7785	0.56 ± 0.0059
x1 = 0.8445	0.529 ± 0.0058
x1 = 0.9107	0.5 ± 0.0056
x1 = 0.9775	0.472 ± 0.0055

C=CC(=O)OC + CCCCCCCCO
viscosity [mPa·s], 101.3 kPa
Conditions	x1 = 0.0847	x1 = 0.2398	x1 = 0.3089	x1 = 0.4269	x1 = 0.5391	x1 = 0.7233	x1 = 0.8011	x1 = 0.8748	x1 = 0.9408	x1 = 0.9698
298.15 K	5.555 ± 0.24	3.533 ± 0.16	2.795 ± 0.13	1.948 ± 0.09	1.353 ± 0.065	0.857 ± 0.043	0.692 ± 0.036	0.566 ± 0.031	0.506 ± 0.028	0.47 ± 0.027
308.15 K	4.155 ± 0.18	2.757 ± 0.12	2.06 ± 0.095	1.583 ± 0.075	1.127 ± 0.055	0.732 ± 0.038	0.622 ± 0.033	0.497 ± 0.028	0.433 ± 0.025	0.415 ± 0.024

C=CC(=O)OCCCC + CCCCCCCCO
viscosity [mPa·s], 101.3 kPa
Conditions	x1 = 0.0586	x1 = 0.1668	x1 = 0.2181	x1 = 0.3218	x1 = 0.4238	x1 = 0.6226	x1 = 0.7052	x1 = 0.8125	x1 = 0.9095	x1 = 0.9529
298.15 K	5.944 ± 0.25	4.17 ± 0.18	3.544 ± 0.16	2.729 ± 0.12	2.165 ± 0.1	1.403 ± 0.067	1.232 ± 0.06	0.998 ± 0.049	0.9 ± 0.045	0.85 ± 0.043
308.15 K	4.393 ± 0.19	3.177 ± 0.14	2.752 ± 0.12	2.096 ± 0.097	1.689 ± 0.079	1.146 ± 0.056	0.992 ± 0.049	0.841 ± 0.043	0.753 ± 0.039	0.715 ± 0.037
